Assay results taken from patent US12146183B2, “Compound and a method for identifying a protein using said compound” (CITY UNIVERSITY OF HONG KONG, priority 2020, dated 2024).
Where a SMILES comes first, the peptide text is derived from it. The star is where a group is joined. ξ: configuration not given here. Lipoyl(6ξ) = O=C(CCCCC1CCSS1)*

T1: Sirt2 (Homo sapiens, UniProt Q8IXJ6)
T1 construct: made in house
T1 sequence (Q8IXJ6 1-389): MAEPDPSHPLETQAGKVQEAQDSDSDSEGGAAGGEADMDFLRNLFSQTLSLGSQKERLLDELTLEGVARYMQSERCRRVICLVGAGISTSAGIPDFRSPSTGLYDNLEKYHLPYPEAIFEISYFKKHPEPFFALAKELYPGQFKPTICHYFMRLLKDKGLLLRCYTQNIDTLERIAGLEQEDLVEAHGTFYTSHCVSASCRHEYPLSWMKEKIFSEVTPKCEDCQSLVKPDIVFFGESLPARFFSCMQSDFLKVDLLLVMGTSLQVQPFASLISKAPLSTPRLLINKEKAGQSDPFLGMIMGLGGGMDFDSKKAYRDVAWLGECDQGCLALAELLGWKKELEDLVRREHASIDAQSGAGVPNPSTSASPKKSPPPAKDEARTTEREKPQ

B1: Sirt2 (Homo sapiens) (protein)
chain: T1 sequence (Q8IXJ6 1-389)
notes: made in house

Key:
Sirt2 [1] = target: T1, Sirt2; assay: HPLC delipoylation assay of lipoylated peptides with Sirt2; format: biochemical; conditions: Sirt2 + NAD+, 37° C., monitored at 280 nm after 40 min
Description: A total of 11 lipoylated peptides (KAlip-1 to KAlip-11) were synthesised. The peptide sequences were selected from proteins that have been reported as being lipoylated (PDH, KDH, BCKDH, and GCV) and non-lipoylated proteins (e.g., histone). The peptides were synthesized with a standard Fmoc solid phase synthesis approach and characterized by LC-MS. The delipoylation activity was then determined by an HPLC assay. Compared with non-putative peptides, putative lipoylated peptides appeared to be more efficiently hydrolyzed by Sirt2. For example, the delipoylated product of KAlip-1 (derived from histone) after 40 min was determined to be 59%, which is less than that of putative lipoylated substrates such as KAlip-5 and KAlip-6 (derived from PDH).
The lipoylated peptides KAlip-1 to -11 were incubated with sirtuin and cofactor NAD+ at 37° C. in 20 mM HEPES buffer (pH 8.0) containing 150 mM NaCl, 1 mM MgCl2, and 2.7 mM KCl. The reaction volume was set to 50 μL. At each specific reaction time point, the reaction mixtures were quenched by adding 250 μL of methanol. The reactions were vortexed and centrifuged. Supernatant was collected and then analysed by reverse phase HPLC. The new peak generated was collected for ESI-MS or MALDI-TOF-MS analysis directly.

Sirt2 [2] = target: T1, Sirt2; assay: In-gel fluorescence photo-crosslinking labelling of recombinant Sirt2; format: binding; conditions: competition with probe KPlip
Description: The labelling efficiency of KPlip with recombinant Sirt2 was investigated. The Sirt2 enzyme was first incubated with either KPlip or a negative control probe, KPlip-C(lacking lipoylation), followed by 15 min of UV irradiation. Following click chemistry with rhodamine azide (Rh—N3), the reaction mixtures were resolved by SDS-PAGE and analysed by in-gel fluorescence scanning.
A further selectivity study was performed. […] To examine whether lipoic acid of KPlip forms a disulfide bond with cysteine residues in Sirt2, excessive reducing reagent TCEP was added to the solution containing Sirt2 and KPlip prior to UV irradiation.
20 μM azide reagent was added to the protein samples labelled by KPlip and KPlip-C. Tris(2-carboxyethyl)phosphine (0.4 mM), tris(3-hydroxypropyltriazolylmethyl)amine (40 μM), and CuSO 4 (0.4 mM) were then added. The reaction was kept at room temperature for 2 h.
After click chemistry reaction with rhodamine-azide, chilled acetone was added to the reaction mixtures. The reaction was then placed in a −20° C. freezer for 1 h to precipitate the proteins. The pellets were washed with cold methanol and air-dried. Finally, they were redissolved in 1×SDS loading buffer by heating at 95° C. for 10 min and then resolved by SDS-PAGE. The labelled proteins were visualized using a FLA-9000 Fujifilm scanner (Ex=532 nm).

[3] = substrate: CSCC[C@H](NC(=O)[C@H](C)NC(=O)[C@H](CCC(=O)O)NC(=O)[C@@H](N)C(C)C)C(=O)N[C@@H](CCCCNC(=O)CCCCC1CCSS1)C(=O)N[C@@H](CC(C)C)C(=O)N[C@@H](CCSC)C(=O)N[C@@H](CC(N)=O)C(=O)N[C@@H](CCC(=O)O)C(=O)N[C@@H](Cc1c[nH]c2ccccc12)C(=O)N[C@@H](Cc1c[nH]c2ccccc12)C(=O)O; assay: Steady-state kinetic study of lipoylated peptides with Sirt2 (HPLC); format: biochemical; conditions: other: Sirt2, 400 μM NAD+, HEPES pH 8.0, 37° C.
Description: (§1) The delipoylation activity of HDAC8 was further examined using KAlip-5 and KAlip-1. […] A more detailed assessment of the enzymatic delipoylation reaction was performed. Time-dependent experiments and steady-state kinetics studies were conducted of KAlip-1, 5, 8, and 10 with Sirt2 (Table 1).
(§2) To determine the values of kcat, and Km, purified Sirt2 with 400 μM NAD+ was incubated with different concentrations of lipoylated peptide (0-120 μM) in 20 mM HEPES buffer (pH 8.0) containing 150 mM NaCl, 1 mM MgCl2, and 2.7 mM KCl at 37° C. for 10 min (KAlip-1 and KAlip-10) or 5 min (KAlip-5 and KAlip-8). The reactions were quenched by adding 250 μL of methanol and then applied for HPLC analysis with a linear gradient of 5% to 85% B (acetonitrile) for 30 min. The generated delipoylated product was quantified based on the peak area monitored at 280 nm. The kcat, and Km, values were calculated by curve-fitting Vinitiai/[E] versus [S]. The experiments were conducted in duplicate.

[4] = substrate: CC(C)[C@H](N)C(=O)N[C@@H](CCC(N)=O)C(=O)N[C@@H](CO)C(=O)N[C@@H](CC(=O)O)C(=O)N[C@@H](CCCCNC(=O)CCCCC1CCSS1)C(=O)N[C@@H](C)C(=O)N[C@@H](CO)C(=O)N[C@H](C(=O)N[C@H](C(=O)N[C@@H](Cc1c[nH]c2ccccc12)C(=O)N[C@@H](Cc1c[nH]c2ccccc12)C(=O)O)[C@@H](C)O)C(C)C; assay: as above; format: biochemical; conditions: other: Sirt2, 400 μM NAD+, HEPES pH 8.0, 37° C.
Description: as §1, §2

[5] = substrate: C[C@H](NC(=O)[C@@H](NC(=O)[C@H](CCC(N)=O)NC(=O)[C@@H](N)CCCCN)[C@@H](C)O)C(=O)N[C@@H](CCCNC(=N)N)C(=O)N[C@@H](CCCCNC(=O)CCCCC1CCSS1)C(=O)N[C@@H](CO)C(=O)N[C@H](C(=O)NCC(=O)NCC(=O)N[C@@H](Cc1c[nH]c2ccccc12)C(=O)N[C@@H](Cc1c[nH]c2ccccc12)C(=O)O)[C@@H](C)O; assay: as above; format: biochemical; conditions: other: Sirt2, 400 μM NAD+, HEPES pH 8.0, 37° C.
Description: as §1, §2

[6] = substrate: CC[C@H](C)[C@H](NC(=O)[C@@H](NC(=O)[C@H](C)NC(=O)[C@H](CCCCNC(=O)CCCCC1CCSS1)NC(=O)[C@H](CC(=O)O)NC(=O)[C@@H](NC(=O)[C@H](CCC(=O)O)NC(=O)[C@@H](NC(=O)[C@@H](N)CCC(=O)O)[C@@H](C)CC)[C@@H](C)O)[C@@H](C)O)C(=O)NCC(=O)N[C@@H](Cc1c[nH]c2ccccc12)C(=O)N[C@@H](Cc1c[nH]c2ccccc12)C(=O)O; assay: as above; format: biochemical; conditions: other: Sirt2, 400 μM NAD+, HEPES pH 8.0, 37° C.
Description: as §1, §2

Molecule	Delipoylation product (HPLC yield of delipoylated product) (Sirt2 [1]) [%]	also measured
CC(C)[C@H](N)C(=O)N[C@@H](CCC(N)=O)C(=O)N[C@@H](CO)C(=O)N[C@@H](CC(=O)O)C(=O)N[C@@H](CCCCNC(=O)CCCCC1CCSS1)C(=O)N[C@@H](C)C(=O)N[C@@H](CO)C(=O)N[C@H](C(=O)N[C@H](C(=O)N[C@@H](Cc1c[nH]c2ccccc12)C(=O)N[C@@H](Cc1c[nH]c2ccccc12)C(=O)O)[C@@H](C)O)C(C)C (stereo partly drawn) [KAlip-8, VQSD K(lip)ASVTWW] (H-VQSDK(Lipoyl(6ξ))ASVTWW-OH)	100	–
C[C@H](NC(=O)[C@@H](NC(=O)[C@H](CCC(N)=O)NC(=O)[C@@H](N)CCCCN)[C@@H](C)O)C(=O)N[C@@H](CCCNC(=N)N)C(=O)N[C@@H](CCCCNC(=O)CCCCC1CCSS1)C(=O)N[C@@H](CO)C(=O)N[C@H](C(=O)NCC(=O)NCC(=O)N[C@@H](Cc1c[nH]c2ccccc12)C(=O)N[C@@H](Cc1c[nH]c2ccccc12)C(=O)O)[C@@H](C)O (stereo partly drawn) [KAlip-1, KQTARK(lip)STGGWW] (H-KQTARK(Lipoyl(6ξ))STGGWW-OH)	59	–
CSCC[C@H](NC(=O)[C@H](C)NC(=O)[C@H](CCC(=O)O)NC(=O)[C@@H](N)C(C)C)C(=O)N[C@@H](CCCCNC(=O)CCCCC1CCSS1)C(=O)N[C@@H](CC(C)C)C(=O)N[C@@H](CCSC)C(=O)N[C@@H](CC(N)=O)C(=O)N[C@@H](CCC(=O)O)C(=O)N[C@@H](Cc1c[nH]c2ccccc12)C(=O)N[C@@H](Cc1c[nH]c2ccccc12)C(=O)O (stereo partly drawn) [KAlip-11, VEAMK(lip)LMNE WW] (H-VEAMK(Lipoyl(6ξ))LMNEWW-OH)	94	–
SDPIIK(lip)GSGTWW [KAlip-3]	98	–
EALPKK(lip) TGGPWW [KAlip-9]	100	–
EIETDK(lip) TSVQWW [KAlip-7]	65	–
CC[C@H](C)[C@H](NC(=O)[C@@H](NC(=O)[C@H](C)NC(=O)[C@H](CCCCNC(=O)CCCCC1CCSS1)NC(=O)[C@H](CC(=O)O)NC(=O)[C@@H](NC(=O)[C@H](CCC(=O)O)NC(=O)[C@@H](NC(=O)[C@@H](N)CCC(=O)O)[C@@H](C)CC)[C@@H](C)O)[C@@H](C)O)C(=O)NCC(=O)N[C@@H](Cc1c[nH]c2ccccc12)C(=O)N[C@@H](Cc1c[nH]c2ccccc12)C(=O)O (stereo partly drawn) [KAlip-5, EIETDK(lip)ATIGWW] (H-EIETDK(Lipoyl(6ξ))ATIGWW-OH)	100	–
SGASEK(lip)DIVHSGWW [KAlip-4]	100	–
EIETDK(lip)AVVTWW [KAlip-6]	100	–
VKSK(lip)ATNL WW [KAlip-2]	97	–
VQSDKlipASVT [lipoylated peptide competitor]	–	Inhibition of KPlip labelling of Sirt2 (Sirt2 [2]): can be inhibited
B1	–	Km [3]: 13.5 µM; Km [4]: 26.2 ± 3.3 µM; Km [5]: 9.7 ± 0.2 µM; Km [6]: 18.9 µM
